The source of these data is patent US20160199338A1, “COMPOSITIONS CONTAINING MONOACETYLDIACYLGLYCEROL COMPOUND AS AN ACTIVE INGREDIENT FOR PREVENTING OR TREATING RHEUMATOID ARTHRITIS” (ENZYCHEM LIFESCIENCES CORPORATION, priority 2013, published 2016).

Series [1] concerns arthritis induced by bovine type II collagen in male DBA/1J mouse. The series can be described thus: Collagen-induced arthritis animal model. In kind it is in vivo. The following applies: for histopathological arthritis score of knee joint: knee joint of both hind legs, vs negative control (FIG. 6); for histopathological arthritis score of knee joint / concentration of IL-6 in serum: EC-18 125, 500, 2,000 mg/kg oral, Remicade 20 mg/kg intraperitoneal, methotrexate 2.5 mg/kg oral; for concentration of IL-6 in serum: serum collected at day of tissue excision, once a day for five weeks, vs negative control (FIG. 4). On the procedure:
For arthritis animal model experiment, arthritis was induced in male DBA/1J mouse by administering bovine type II collagen to the mouse. Efficacy of EC-18 for treating (or improving) arthritis was evaluated by repeatedly administering EC-18 to the mouse orally. For comparison, Remicade (positive control 1) was administered intraperitoneally and methotrexate (positive control 2) was administered orally. The experiment included seven groups: normal group (G1), negative control (G2), 125 mg/kg, 500 mg/kg and 2,000 mg/kg of EC-18 (EC-18 treatment groups, G3, G4, G5), 20 mg/kg of Remicade (Positive control 1, G6) and 2.5 mg/kg of Methotrexate (Positive control 2, G7). Each group consists of 10 mice. Olive oil was administered to normal group (G1) and negative control group (G2) as an excipient. In all groups, administration was made once a day for five weeks (a total of 35 administrations). Remicade (G6) was administered intraperitoneally, whereas EC-18, methotrexate and olive oil were administered orally in force. For all groups except normal Group (G1), arthritis was induced by immunizing animals twice with bovine type II collagen and complete Freund's adjuvant or incomplete Freund's adjuvant emulsion. During the observation period, common arthritis symptoms were observed once a day, weigh measured once a week, arthritic score evaluation made with the naked eye twice a week, foot thickness measured twice a week.

The conditions of series [2]: GLP toxicity test; cited from earlier work.

As for `CN(Cc1cnc2nc(N)nc(N)c2n1)c1ccc(C(=O)N[C@@H](CCC(=O)O)C(=O)O)cc1` [Methothrexate, methotrexate], in series [1], the “histopathological arthritis score of knee joint” value is given as “reduced” and the “concentration of IL-6 in serum” value is on record as “reduced”.

On to `CCCCC/C=C\C/C=C\CCCCCCCC(=O)OC(COC(C)=O)COC(=O)CCCCCCCCCCCCCCC` (stereo not drawn) [EC-18, 1-palmitoyl-2-linoleoyl-3-acetylglycerol], for which, in series [2], the toxicity result is listed as “no toxicity”.

For the compound “Remicade: positive control 1, administered intraperitoneally at 20 mg/kg”, the “crushing of cartilage and increase of Pannus (stained arthritic tissue)” value in series [1] (EC-18 500 mg/kg (G4), Remicade 20 mg/kg (G6), vs negative control (FIGS. 7 and 8)) is listed as “reduced”. Further, in series [1], the “histopathological arthritis score of knee joint” value is given as “reduced” and the “concentration of IL-6 in serum” value is recorded as “reduced”.
